In article PMC6325109, “The transcription factor STAT5 catalyzes Mannich ligation reactions yielding inhibitors of leukemic cell proliferation” (Nature Communications, 2019) one finds Ki, IC50 and Kd data, which are given here for 10 molecules.

In general, Ki refers to a measure of affinity in units of concentration, obtained from inhibition or displacement. What is called IC50 is the concentration that gives 50% inhibition. Low readings indicate higher potency, high ones lower potency. One may read the Kd as the equilibrium constant for the complex coming apart.

Positions count from the first letter of the chain named. Where no end group is shown, it is not given here. [ ]: non-standard residue; d: D form. pY = N[C@@H](Cc1ccc(OP(=O)(O)O)cc1)C(=O)O

In assay [1] the target is T1, MBP-STAT5b-SH2 (Homo sapiens, UniProt P51692).
T1 sequence (P51692 589-686 limits assumed): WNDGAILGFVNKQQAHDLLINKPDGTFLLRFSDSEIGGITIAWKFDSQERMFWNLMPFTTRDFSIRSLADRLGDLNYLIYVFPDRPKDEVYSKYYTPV
As to the kind of experiment: biochemical. Set-up: fluorescence polarization competition with carboxyfluorescein-labelled phosphopeptide on MBP-STAT5b-SH2. On the procedure: 24 sealed with optical seal, shaken for 15 min, and centrifuged. Thermal scanning (20 to 95°C at 1°C/min) was performed using a real-time PCR setup (Light Cycler, Roche Diagnostics, Mannheim, Germany) and fluorescence intensity was measured after every 0.3 s. Curve fitting, melting temperature calculation and report generation on the raw data were performed using GraphPad Prism 5 software. Fluorescence polarization assays and screening Ca. 17000 compounds and fragments from the ChemBioNet library were tested in a fluorescence polarization (FP) assay to investigate their ability to bind to STAT5b-SH2 domain by displacing the fluorophore-labeled peptide 5-carboxyfluorescein-GY (PO3H2) LSLPPW-NH2 1. Purified compounds were tested in the same assay. The peptide purity was >95% and the assays were performed at room temperature. The final concentration of buffer components used was 10 mM HEPES (pH 7.5), 1 mM EDTA, 0.1% Igepal CA-630, 50 mM NaCl, and 5% DMSO and the final concentration of protein used was at 125 nM. The protein was first added to the black 384-well plate (Corning cat.CLS3676, Sigma Aldrich, Taufkirchen, Germany) followed by test compounds and fluorophore-labeled peptide. The plates were centrifuged, and measured using Safire2 well plate reader (Tecan, Crailsheim, Germany) after 15 min incubation at room temperature. For testing secondary site binding of primary hit fragments, the same assay was conducted in the presence of 4-formylphenyl phosphate 2 as described earlier. For specificity analysis, FP assay was conducted with 100 nM GST-tagged, full length human STAT3 protein (cat. S54-54G-50, SignalChem, Richmond, BC, Canada) and 10 nM fluorophore-labeled peptides (5-carboxyfluorescein-GY (PO3H2) LPQTV-NH2). […] Ligands with such high ligand efficiency are rather found for enzymatic binding pockets than for protein–protein interaction sites and thus fragment 3 was selected for further validation. Binding of 3 to STAT5b-SH2 was confirmed using the thermofluor assay[28],[29], a thermal shift assay (TSA), as an independent biophysical assay. Binding of fragment 3 augmented the melting point of STAT5 by ΔTm of 3 °C (Supplementary Figure 1). Potential binding modes of the phosphotyrosine 2 and the fragment hit 3 were scrutinized using a homology model of STAT5b derived from the crystal structure of STAT5a (PDB:1Y1U [10.2210/pdb1Y1U/pdb]) for molecular docking (Fig. 1b, c)[30]. The phosphotyrosine binding site in the STAT5-SH2 domain is shallow compared with the deeper binding pockets of PTP[31],[32], coordinating phenyl phosphate 2 by only two amino-acid residues, Arg618 and Ser622. As a result, the benzene ring of 2 is not buried in a cavity like in the case of PTPs but rather exposed to the solvent at the protein surface.

The target of assay [2] is T1, MBP-STAT5b-SH2. As to the kind of experiment: fluorescence polarization competition with peptide […]. The class given is binding. The note with it: […] MOPS pH […], room temperature; competitive. A general note: Fluorescence polarisation rises when a labelled molecule tumbles more slowly, as on binding a larger partner.
Assay [3] concerns the target T2, MBP-STAT5b-SH2 (Homo sapiens, UniProt P51692, N642A).
T2 sequence (P51692 589-686 N642A limits assumed): T1 sequence (P51692 589-686 limits assumed) with N54A
The assay is described as above. The class given is binding. Particulars: […] MOPS pH […], room temperature; competitive.

In assay [4] the target is T1, MBP-STAT5b-SH2. The description is as above. The note with it: […] MOPS pH […], room temperature; competitive. The class given is binding. This is another data set of the same source.
Assay [5] deals with T3, STAT5b-SH2 domain fused to maltose-binding protein (MBP) (human, UniProt P51692 589-686).
T3 construct: STAT5b, SH2 domain; also called MBP-STAT5b-SH2; MBP-STAT5b; source: recombinantly expressed
T3 sequence (looked up): T1 sequence (P51692 589-686 limits assumed)
As to the kind of experiment: fluorescence polarisation; MBP-STAT5b-SH2 with peptide 1 (10 nM), 50 mM MOPS buffer pH 7.4, room temperature, 20 µl. The note with it: both partners purified.

The target of assay [6] is T4, MBP-STAT5b-SH2 N642A (human, UniProt P51692 589-686, N642A).
T4 construct: STAT5b, SH2 domain with N642A; Same construct as m1 apart from the mutation; also called STAT5b-N642A; mutant STAT5b-N642A; source: generated by site-directed mutagenesis
T4 sequence (looked up): T1 sequence (P51692 589-686 limits assumed) with N54A
The description is as above. Particulars: both partners purified.

`O=Cc1ccc(OP(=O)(O)O)cc1` [compound 2, 4-formylphenyl phosphate] yielded a Ki in assay [1] above 2500 µM.
As to `O=C(Cn1cnnn1)Nc1nonc1C(=O)O` [compound 5, 4-(2-(1H-tetrazol-1-yl)-acetamido)-1,2,5-oxadiazole-3-carboxylic acid], the Ki in assay [1] is above 2500 µM.
Molecule `O=C(O)c1nonc1NCn1cccn1` [compound 8, pyrazol-1-yl 8] had a Ki in assay [2] of 122 ± 25 µM.
For `O=C(O)c1nonc1NCn1cnnn1` [compound 10, 4-(Tetrazolyl-1-methylamino)-furazan-3-carboxylic acid], the IC50 in assay [3] came out at 30 µM; in assay [4], 1.5 µM.
`O=C(O)c1nonc1NCn1nnnc1-c1ccccc1` [compound 11, 4-(5-phenyl-tetrazol-1-yl-methylamino)-furazane-3-carboxylate]: in assay [2], the affinity, expressed as Ki, was 1.4 µM.
On the same count and under the same terms, with `O=C(O)c1nonc1NCn1nnnc1-c1cccc(C(F)(F)F)c1` [compound 12, 5-(3-trifluoromethyl-phenyl)-12] the figure was 0.9 µM; with `O=C(O)c1nonc1NCn1nnnc1-c1cccc(F)c1` [compound 13, 5-(3-fluorophenyl) 13], 0.6 µM.
For the molecule `c1nnn[nH]1` [compound 25, 1H-tetrazole], the Ki in assay [1] was above 2500 µM.
With `c1ccc(Cc2nn[nH]n2)cc1` [compound 26, benzyl-tetrazole], in assay [1], the Ki is above 2500 µM.

B1: carboxyfluoresceine-labeled phosphotyrosine octapeptide 1 (peptide)
chain: G[pY]LSLPPW
modifications: not fully specified (N-terminus); also: carboxyfluorescein label, place not given here
For the molecule B1, the Kd in assay [5] was 0.055 µM; in assay [6], around 5 µM.
